Data published in paper PMC8196714, “Design, Radiosynthesis and Preliminary Biological Evaluation in Mice of a Brain-Penetrant ^18F-Labelled σ2 Receptor Ligand” (International Journal of Molecular Sciences, 2021).

How the values were obtained:
σ2 receptor = molecular target: T1, σ2 receptor (Rattus norvegicus, UniProt Q5U3Y7); assay: In vitro autoradiography on rat brain cryosections (healthy and orthotopic F98 glioblastoma); assay type: binding; design: from tissue; host or cells: rat brain cryosections (SPRD healthy; Fisher F344 with orthotopic F98 glioblastoma); details: for specific binding sites: at 1.5 nM [18F]RM273; for Kd: rat brain cryosections, n = 2
T1 sequence (Q5U3Y7 1-176): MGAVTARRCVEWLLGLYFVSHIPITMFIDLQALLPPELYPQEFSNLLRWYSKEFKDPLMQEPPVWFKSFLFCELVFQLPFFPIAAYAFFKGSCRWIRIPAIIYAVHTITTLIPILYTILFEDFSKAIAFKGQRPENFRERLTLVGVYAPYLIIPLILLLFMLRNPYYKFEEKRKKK
Source text: Initially, we investigated the binding of [^18F]RM273 on rat brain slices by autoradiography to compare the distribution pattern with that of established σ2 receptor ligands and to examine the target specificity. The highest binding was found in the cortical areas and hippocampal structures. […] Accordingly, we proceeded to investigate, in a rat glioblastoma model, the potential suitability of [^18F]RM273 for molecular characterization of cancer. At first, homologous competition studies using membrane homogenates of the rat glioma cell line F98 were performed to determine the σ2 receptor binding parameters of [^18F]RM273 cells (Figure 3).
We subsequently investigated the binding parameters of [^18F]RM273 by in vitro autoradiography using cryosections of rat brains obtained three weeks after stereotactic implantation of F98 rat glioblastoma cells into the left striatum. Initially, we performed a homologous displacement study to directly compare the binding sites of the new radioligand in a healthy brain and a brain tumor. The inhibition curves presented in Figure 3 indicate binding of [^18F]RM273 to single binding sites in both brain regions. […] Further supporting the assumption of a tumor-specific overexpression of σ2 receptors, a remarkably high density of binding sites of [^18F]RM273 in the F98 tumor tissue was observed (Figure 4). Compared to the healthy tissue (contralateral side), about three times more specific binding sites of [^18F]RM273 were estimated for the tumor region (32 × 10^−9 mol/L vs. 94 × 10^−9 mol/L at 1.5 nM [^18F]RM273).
In vitro autoradiography was performed using cryosections of brains of a healthy rat (SPRD, female, 250 g; Medizinisch-Experimentelles Zentrum, Universität Leipzig, Leipzig, Germany) and brains obtained from rats (Fisher F344/HanZtmRj, male, ≈260 g; Janvier Labs, Le Genest-Saint-Isle, France) 23 days after stereotactic implantation of 5 × 10^4 F98 cells in the […] striatum (n = 2).
Immediately after isolation, the brains were frozen by immersion in isopentane at −25 °C. Cryosections of 12 μm (Microm HM560 cryostat, Thermo Scientific, Schwerte, Germany) were mounted on microscopic glass slides, dried at room temperature, and stored at −25 °C. For the experiment, the slices were dried at room temperature under a stream of cold air before pre-incubation in PBS, pH 7.4, at room temperature for 15 min. […] Co-incubation with serial dilutions of RM273 (10^−10–10^−6 M) was performed to determine an inhibition curve. After 60 min, the incubation at room temperature was terminated by decanting and washing the slides by two consecutive incubations in ice-cold washing buffer (50 mM TRIS-HCl, pH 7.4 at 4 °C) for two min each, followed by dipping in ice-cold demineralized water for 5 sec and drying under a stream of cold air. In parallel, for subsequent quantification of the data obtained from the homologous competition experiment, defined volumes, and thus defined activities of the radioligand solution, were pipetted onto a microscopic glass slide (0.5–3 μL = 0.0355–0.213 kBq) and dried. Afterwards the tissue samples along with the standards were exposed to an ^18F-sensitive phosphor screen (ABC) for two hours. Image acquisition was performed using a phosphorimager (HD-CR 35; DÜRR NDT GmbH & Co. KG, Bietigheim-Bissingen, Germany). Analysis of the digitized images was performed by image analysis software (AIDA; Elysia-raytest GmbH, Straubenhardt, Germany).
Irregular regions of interest (ROI) were drawn on the standard spots and the different brain regions, which were confirmed by Nissl staining of the identical brain sections. Optical density measured in each ROI was expressed as quantum levels per unit area (QL/pixel) with a pixel size of 12.5 μm^2. From the calibration curve obtained from the standards by plotting QL vs. activity, the QL values of the ROIs were converted to activity values followed by conversion to chemical concentration of RM273 based on the molar activity of [^18F]RM273. […]

[1] = Dynamic PET imaging in CD1 mice; assay type: in vivo; details: i.v.
Procedure: As expected by the optimal lipophilicity of [^18F]RM273 (see 2.3, [43]) the PET images and the time–activity curve obtained for the whole brain shown in Figure 6 indicate a fast permeation of the BBB with a mean standardized uptake value (SUV) of 1.3 ± 0.4 at 2.25 min p.i. (n = 4).
The biodistribution of [^18F]RM273 in mice was assessed by dynamic small animal PET (Nanoscan, Mediso, Budapest, Hungary) 60 min recordings, followed by T1 weighted (GRE, TR/TE = 15.0/2.4 ms, 252/252, FA = 25°) imaging for anatomical correlation and attenuation correction. The mice weighing 31.7 ± 3.8 g were anaesthetized with 2% isoflurane in 60% oxygen and placed on a thermostatically heated animal bed. [^18F]RM273 (7.2 ± 1.1 MBq) was injected i.v. into the lateral tail vein (bolus within 5 s) at the start of the PET-acquisition. List mode PET data were binned as a series of attenuation-corrected sinogram frames (12 × 10 s, 6 × 30 s, 5 × 60 s and 10 × 300 s) and were reconstructed by Ordered Subset Expectation Maximization (OSEM3D) with four iterations, six subsets, and a voxel size of 0.4 mm^3 (Nucline v2.01, Mediso, Hungary). The analysis of reconstructed datasets was performed with PMOD software (v4.103, PMOD Technologies LLC, Zurich, Switzerland). […]

specific binding sites (σ2 receptor; F98 tumor region): 9.4e-08 mol/L
Kd (σ2 receptor; contralateral striatum / contralateral brain): 2.93 nM
specific binding sites (σ2 receptor; healthy tissue (contralateral side)): 3.2e-08 mol/L
Kd (σ2 receptor; orthotopically grown F98 tumor region): 4.82 nM
mean standardized uptake value (SUV), whole brain ([1]; 2.25 min p.i., n = 4): 1.3 ± 0.4
peak-to-endpoint ratio, brain ([1]; 60 min PET): 6.4 ± 0.9
Compound: COc1cc2c(cc1OC)CN(CCCCn1ccc3ccc([18F])nc31)CC2 [[^18F]RM273]
